Structures can show the parent of a compound that is named as a salt. Where two headings read alike, the source gives them in different places. Blank lines part the entries; values can stand above or below the compound they belong to.
Experiments:
[1] = pre-clinical tests; cited from earlier work
[2] = Plasma levels of 3-OH gepirone after gepirone treatment; assay type: in vivo; conditions: animals and humans treated with gepirone
Source text: 3-OH gepirone has the same receptor binding, therefore, it is theorized that 3-OH-gepirone accounts for at least some of the effect noted with gepirone.

[3] = tested on: post-synaptic receptors in the hippocampus; conditions: cited from earlier work
subjects with anxiety = assay: Total cholesterol in random subset of 103 subjects from adatanserin study 790-210; assay type: in vivo, human
Source text: Adatanserin is another drug with similar properties. The studies done in adatanserin were largely done on anxiety, not depression. It was not known if the cholesterol levels in subjects with anxiety are elevated. (In the small sample studied below, the levels are not elevated). One paper in subjects with panic disorder claims that paroxetine treatment elevated plasma cholesterol (Kim E J, YU B-H, Increased Cholesterol Levels After Paroxetine Treatment in Patients with panic Disorder. J Clinical Psychopharmacol 2005; 25:597-599). However, to see if adatanserin might also have cholesterol lowering properties, the inventors of the present invention examined a random subset of 103 subjects from study 790-210.

[4] = tested on: subjects with Major Depression; assay: Non-fasting total cholesterol at baseline and 8 weeks in 10 clinical studies of Gepirone-ER, meta-analysis; assay type: in vivo, human; conditions: for cholesterol levels, SSRI vs placebo: paroxetine one study n=143 p=0.045, fluoxetine three studies n=295 p=0.014, FIG. 4
Procedure: In 10 clinical studies of the antidepressant effects of Gepirone-ER comprised of 2302 subjects with Major Depression safety measurements included non-fasting measurements of cholesterol at baseline and at 8 weeks (endpoint). A JMP-7 one way ANOVA of the data provided results for individual studies which were then analyzed by meta-analysis. […] So, analysis of the effect of gepirone on cholesterol levels in the 40-59 year range was conducted.

[5] = tested on: MDD subjects over or under 200 mg/dL cholesterol; assay: Gepirone-ER antidepressant efficacy (HAMD-17) by cholesterol level, 8 double-blind MDD studies; assay type: in vivo, human; conditions: for HAMD responders percent: responder = 50% decrease in HAMD-17
Source text: The effects of cholesterol on gepirone-ER efficacy was investigated. […] As such, it was expected that the results for gepirone to be similar to that of Fava. […] Corresponding placebo values were generated as well.
The total population used was 10 times greater than the Fava Study addressed in the background section (Sonawalla S B, Papakostas G I, Petersen T J, Yeung A S, Smith M M, Sickinger A H, Gordon J, Israel J A, Tedlow J R, Lamon-Fava S, Fava M, Elevated cholesterol levels associated with nonresponse to fluoxetine treatment in major depressive disorder. Psychosomatics. 2002; 43:310-6). Using the cutoff value of 200 mg/dL, there were 1264 subjects above 200 mg/dL and 1225 subjects below. […] The respective average cholesterol levels were 234.3±29.7 and 169.9±21.2, similar to the Fava data.
The results there compared by t-test of odds ratio programs. The results for gepirone were examiner in 8 MDD studies. The low cholesterol group treated with gepirone-ER had 41.2% responders compared to the high cholesterol treated group 43.3% responders, a […] favoring the high cholesterol group (p=0.58)(Table 2). When the gepirone ER and placebo groups (Table 2) are compared, the high cholesterol gepirone treated group is 13.6% better than placebo (p=0.002), whereas the difference between the low cholesterol gepirone and placebo group is 0.5%, (p=0.602). However, the over 200 placebo group is 11% less than the under 200 placebo group (p=0.004).

depressed subjects = conditions: open label, cited from earlier work

Structure (SMILES): c1cnc(N2CCNCC2)nc1 [1-PP, 1-(2-pyrimidinyl)piperazine]
antidepressant-like characteristics [1]: did not exhibit antidepressant-like characteristics

plasma levels of metabolite relative to gepirone [2]: greater than that of gepirone
Structure (SMILES): CC1(C)CC(=O)N(CCCCN2CCN(c3ncccn3)CC2)C(=O)C1O (centres unmarked) [3-OH gepirone]
type of agonism at post-synaptic receptors [3]: full agonism

Structure (SMILES): O=C(NCCN1CCN(c2ncccn2)CC1)C12CC3CC(CC(C3)C1)C2 [Adatanserin, N-[2-[4-(2-pyrimidinyl)-1-piperazinyl]ethyl]tricyclo[3.3.1.1^3,7]decane-1-carboxamide]
Difference in cholesterol change between adatanserin and placebo (subjects with anxiety; adatanserin n=76 vs placebo n=27, p=0.011): 15.22 mg/dL
Total Cholesterol after treatment, mean (SD) (subjects with anxiety; n=76, after treatment): 197.46 (44.1) mg/dL
Total Cholesterol at baseline, mean (SD) (subjects with anxiety; n=76, at baseline): 204.46 (46.4) mg/dL
Change in Total Cholesterol (subjects with anxiety; n=76, baseline to after treatment): -7.00 mg/dL

Structure (SMILES): CC1(C)CC(=O)N(CCCCN2CCN(c3ncccn3)CC2)C(=O)C1 [Gepirone, 4,4-dimethyl-1-[4-[-(2-pyrimidinyl)-1-piperazinyl]-butyl]-2,6-piperidinedione hydrochloride]
average drop in total cholesterol, meta-analysis ([4]; 10 studies, p=0.016, FIG. 6): 2.8 mg/dL
number of studies with lower total cholesterol levels ([4]; of 10 studies): 7
change in cholesterol levels ([4]; patients in the 40-59 year range, FIG. 7): -5 mg/dL
HAMD change from baseline Δ means ± SD ([5]; cholesterol over 200 mg/dL, n=344, p=0.001 vs placebo): −9.58 ± 7.2
HAMD responders percent ([5]; cholesterol over 200 mg/dL, n=344, p=0.002 vs placebo): 43.3%
HAMD change from baseline Δ means ± SD ([5]; cholesterol under 200 mg/dL, n=354, p=0.656 vs placebo): −9.48 ± 7.4
HAMD responders percent ([5]; cholesterol under 200 mg/dL, n=354, p=0.602 vs placebo): 41.2%
difference in responders vs placebo ([5]; high cholesterol group (over 200 mg/dL), p=0.002): 13.6%
HAMD change from baseline, difference in means vs placebo ([5]; high cholesterol group, p=0.001): −1.77 points
difference in responders vs placebo ([5]; low cholesterol group (under 200 mg/dL), p=0.602): 0.5%
HAMD change from baseline, standard difference in means vs placebo ([5]; low cholesterol group, p=0.656): −0.02 points
HAMD change from baseline, over vs. under Δ(Δ means) ([5]; over 200 vs under 200 mg/dL, p=0.856): 0.10

Structure (SMILES): CNCCC(Oc1ccc(C(F)(F)F)cc1)c1ccccc1 (centres unmarked) [fluoxetine]
response rate (50% decrease from baseline HAMD-17) (depressed subjects; cholesterol above 200 mg/dL): 46%
response rate (50% decrease from baseline HAMD-17) (depressed subjects; cholesterol below 200 mg/dL): 54%
cholesterol levels, SSRI vs placebo [4]: placebo statistically better then fluoxetine

Structure (SMILES): Fc1ccc([C@@H]2CCNC[C@H]2COc2ccc3c(c2)OCO3)cc1 [paroxetine]
cholesterol levels, SSRI vs placebo [4]: placebo statistically better than paroxetine

— patent US20130267533A1, “5HT1A AGONISTS FOR TREATMENT OF HIGH CHOLESTEROL” (FABRE-KRAMER PHARMACEUTICALS, INC., priority 2012, published 2013)
